Broadly, the chromatographic logP is a lipophilicity value derived from retention on a column. Read a low chromatographic logP as a more hydrophilic compound.

A short description of the series: physchem. The series is classed as physicochemical. As for the experimental part:
Die Bestimmung der logP-Werte erfolgte gemäß EEC Directive 79/831 Annex V.A8 durch HPLC (High Performance Liquid Chromatography) an einer Phasenumkehrsäule (C18) mit Hilfe folgender Methoden: Der logP[a] Wert wird durch LC-UV Messung im sauren Bereich bestimmt, mit 0,9 mL/L Ameisensäure in Wasser und 1,0 mL/L Ameisensäure in Acetonitril als Eluenten (linearer Gradient von 10% Acetonitrile bis 95% Acetonitril).
Der logP[n] Wert wird durch LC-UV Messung im neutralen Bereich bestimmt, mit 79 mg/L Ammoniumcarbonat in Wasser und Acetonitril als Eluenten (linearer Gradient von 10% Acetonitril bis 95% Acetonitril).
Die Kalibrierung wurde mit einer homologen Reihe geradkettiger Alkan-2-one (mit 3 bis 16 Kohlenstoffatomen) mit bekannten logP Werten durchgeführt. Die Werte zwischen aufeinanderfolgender Alkanone werden durch lineare Regression bestimmt.

Turning to `Cn1c(-c2ncccc2SC(F)(F)F)nc2cc(C(F)(F)F)ncc21` [Beispiel 1, 3-Methyl-6-(trifluormethyl)-2-{3-[(trifluormethyl)sulfanyl]pyridin-2-yl}-3H-imidazo [4,5-c] pyridin], the chromatographic logP is 3 (hplc c18, acidic formic acid) and 2.97 (hplc c18, ammonium carbonate).

For the origin of these results see patent EP3636645A1, “PROCESS FOR THE PREPARATION OF SULFUR-SUBSTITUTED PYRIDINE DERIVATIVES” (Bayer Aktiengesellschaft, priority 2018, dated 2020).
